Data from ChEMBL document CHEMBL1138016, “Azaadamantane benzamide 5-HT4 agonists: gastrointestinal prokinetic SC-54750” (Bioorg Med Chem Lett, 2004).

Assays:
[1] = target: T1, Adrenergic receptor alpha-2 (Homo sapiens, UniProt P08913+P18825+P18089); assay: Concentration required for inhibition of alpha-2 adrenergic receptor; assay type: protein assay
T1 sequence (P08913 whole entry): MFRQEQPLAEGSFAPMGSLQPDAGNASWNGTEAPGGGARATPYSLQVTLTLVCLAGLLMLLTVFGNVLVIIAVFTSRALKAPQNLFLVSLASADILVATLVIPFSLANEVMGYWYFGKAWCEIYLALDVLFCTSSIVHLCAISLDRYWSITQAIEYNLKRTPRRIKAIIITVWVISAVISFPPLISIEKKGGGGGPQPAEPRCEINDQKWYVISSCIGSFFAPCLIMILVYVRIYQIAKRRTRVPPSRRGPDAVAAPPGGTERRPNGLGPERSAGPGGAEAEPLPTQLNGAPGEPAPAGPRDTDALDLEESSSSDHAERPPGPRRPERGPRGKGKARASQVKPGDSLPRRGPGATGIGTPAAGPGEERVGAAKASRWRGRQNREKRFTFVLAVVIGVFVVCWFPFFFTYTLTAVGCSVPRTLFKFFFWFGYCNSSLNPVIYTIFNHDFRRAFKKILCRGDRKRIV
T1 sequence (P18825 whole entry): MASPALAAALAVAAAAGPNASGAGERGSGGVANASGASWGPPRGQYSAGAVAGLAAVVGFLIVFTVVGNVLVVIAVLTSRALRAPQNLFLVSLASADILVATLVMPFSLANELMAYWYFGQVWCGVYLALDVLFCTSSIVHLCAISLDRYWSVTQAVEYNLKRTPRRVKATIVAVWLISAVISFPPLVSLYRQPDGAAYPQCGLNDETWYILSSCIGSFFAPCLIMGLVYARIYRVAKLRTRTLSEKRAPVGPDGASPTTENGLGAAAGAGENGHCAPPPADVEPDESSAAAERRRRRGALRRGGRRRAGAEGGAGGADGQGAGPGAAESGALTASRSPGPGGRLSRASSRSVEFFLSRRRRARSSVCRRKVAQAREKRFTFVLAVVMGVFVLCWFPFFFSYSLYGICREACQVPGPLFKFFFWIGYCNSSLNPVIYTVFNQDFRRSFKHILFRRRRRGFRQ
T1 sequence (P18089 whole entry): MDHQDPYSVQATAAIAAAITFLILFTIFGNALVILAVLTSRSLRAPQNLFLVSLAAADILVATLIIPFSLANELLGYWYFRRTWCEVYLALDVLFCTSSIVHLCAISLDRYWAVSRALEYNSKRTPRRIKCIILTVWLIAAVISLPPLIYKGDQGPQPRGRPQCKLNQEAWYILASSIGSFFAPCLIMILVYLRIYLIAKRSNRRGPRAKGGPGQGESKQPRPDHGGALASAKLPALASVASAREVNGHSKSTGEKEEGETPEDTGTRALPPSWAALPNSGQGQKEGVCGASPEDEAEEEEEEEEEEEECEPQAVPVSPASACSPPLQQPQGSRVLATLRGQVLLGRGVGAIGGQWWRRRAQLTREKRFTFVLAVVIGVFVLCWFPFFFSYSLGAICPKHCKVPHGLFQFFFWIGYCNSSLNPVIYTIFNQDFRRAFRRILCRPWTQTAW

[2] = Concentration required for inhibition of 5-hydroxytryptamine 3 receptor using [3H]GR-65630 as the radioligand
[3] = target: Serotonin 2 (5-HT2) receptor (Homo sapiens, UniProt P41595+P28223+P28335); assay type: protein assay
[4] = target: T2, Adrenergic receptor alpha-1 (Homo sapiens, UniProt P35348+P25100+P35368); assay: Concentration required for inhibition of alpha-1 adrenergic receptor using [3H]prazosin as the radioligand; assay type: protein assay
T2 sequence (P35348 whole entry): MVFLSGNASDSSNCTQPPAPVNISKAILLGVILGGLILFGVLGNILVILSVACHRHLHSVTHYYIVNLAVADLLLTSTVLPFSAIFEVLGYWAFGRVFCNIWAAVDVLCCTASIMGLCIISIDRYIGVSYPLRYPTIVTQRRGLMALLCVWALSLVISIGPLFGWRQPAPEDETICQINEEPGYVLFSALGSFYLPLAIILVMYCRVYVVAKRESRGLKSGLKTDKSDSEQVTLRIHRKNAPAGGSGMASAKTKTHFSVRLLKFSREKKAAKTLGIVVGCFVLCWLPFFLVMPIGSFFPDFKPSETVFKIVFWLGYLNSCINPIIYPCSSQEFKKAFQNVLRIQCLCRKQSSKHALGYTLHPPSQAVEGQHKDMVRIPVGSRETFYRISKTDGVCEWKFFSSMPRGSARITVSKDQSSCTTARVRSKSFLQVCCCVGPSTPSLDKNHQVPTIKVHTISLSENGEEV
T2 sequence (P25100 whole entry): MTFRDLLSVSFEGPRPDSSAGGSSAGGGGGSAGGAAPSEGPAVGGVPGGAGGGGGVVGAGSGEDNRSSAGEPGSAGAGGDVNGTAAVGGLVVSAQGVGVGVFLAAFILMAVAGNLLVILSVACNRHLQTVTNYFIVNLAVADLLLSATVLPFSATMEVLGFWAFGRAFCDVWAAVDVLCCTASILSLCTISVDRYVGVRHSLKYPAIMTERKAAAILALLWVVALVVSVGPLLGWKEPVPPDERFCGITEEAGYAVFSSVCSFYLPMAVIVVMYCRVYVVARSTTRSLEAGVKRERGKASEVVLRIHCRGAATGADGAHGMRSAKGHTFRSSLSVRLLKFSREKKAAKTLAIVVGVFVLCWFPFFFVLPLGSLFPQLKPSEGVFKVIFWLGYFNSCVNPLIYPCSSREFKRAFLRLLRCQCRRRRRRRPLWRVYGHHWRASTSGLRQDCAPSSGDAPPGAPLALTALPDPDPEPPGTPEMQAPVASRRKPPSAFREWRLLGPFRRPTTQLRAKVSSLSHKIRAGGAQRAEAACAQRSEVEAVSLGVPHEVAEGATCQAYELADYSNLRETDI
T2 sequence (P35368 whole entry): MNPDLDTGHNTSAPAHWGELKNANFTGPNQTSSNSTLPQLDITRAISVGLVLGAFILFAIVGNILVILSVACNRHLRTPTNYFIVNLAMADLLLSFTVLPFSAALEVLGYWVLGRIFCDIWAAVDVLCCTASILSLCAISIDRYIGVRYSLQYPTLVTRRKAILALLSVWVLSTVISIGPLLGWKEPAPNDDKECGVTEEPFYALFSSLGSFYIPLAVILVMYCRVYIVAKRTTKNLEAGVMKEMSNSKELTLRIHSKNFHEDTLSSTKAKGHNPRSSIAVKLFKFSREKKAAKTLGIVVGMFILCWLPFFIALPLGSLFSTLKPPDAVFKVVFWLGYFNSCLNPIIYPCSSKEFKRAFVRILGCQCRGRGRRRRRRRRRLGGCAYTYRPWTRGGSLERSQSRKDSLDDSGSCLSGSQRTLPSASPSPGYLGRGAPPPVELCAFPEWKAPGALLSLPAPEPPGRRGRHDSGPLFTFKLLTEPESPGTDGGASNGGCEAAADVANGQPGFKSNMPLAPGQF

[5] = target: Adrenergic receptor beta (Homo sapiens, UniProt P08588+P07550+P13945); assay: Concentration required for inhibition of beta adrenergic receptor; assay type: protein assay

| IC50 [1] [µM] | IC50 [2] [µM] | IC50 [3] [µM] | IC50 [4] [µM] | IC50 [5] [µM] | Structure (SMILES) |
| --- | --- | --- | --- | --- | --- |
| 6.4 | 0.672 | 1.8 | > 10 | > 10 | COc1cc(N)c(Cl)cc1C(=O)NC1C2CC3CC1CN(C3)C2 (stereo in doubt; 9a) |
| > 10 | 0.018 | > 10 | > 10 | > 10 | COc1cc(N)c(Cl)cc1C(=O)NC1C2CC3CC1CN(C3)C2 (stereo in doubt; 9b) |
| > 10 | 0.0035 | > 10 | > 10 | > 10 | COc1cc(N)c(Cl)cc1C(=O)NCC1C2CC3CC1CN(C3)C2 (stereo in doubt; 9c) |
